Measurements as given in US6028170A, “Analogs of hirudin” (Baxter International Inc., priority 1998, dated 2000).

Target: T1, human alpha-thrombin (Homo sapiens, UniProt P00734)
T1 construct: were reacted with 1.3 picomoles of human alpha-thrombin
Test: Thrombin inhibition, residual amidolysis of chromogenic substrate S-2238
Assay type: biochemical
Settings: 0.13-1.3 picomoles hirudin with 1.3 picomoles human alpha-thrombin, 0.05 M Tris-HCl pH 7.4, 0.1% BSA, 1 hour at 22° C.
Experimental: Aliquots of the supernatants were diluted with the Tris-BSA buffer and the reaction initiated by addition of S-2238. Reaction velocities were monitored at 410 nanometers and used to determine thrombin activity. Moles of hirudin analog and its derivatives in each assay were determined by radioiodinated hirudin analog tracer.

rHV2 Phe^3 Gln^33 Tyr^35 Lys^47 Asp^63 [H-Tyr]
Thrombin Inhibition (Specific Activity: % of H-Tyr): 100 % of H-Tyr
